# Compound: CC1CC(=O)N(C2=CN=C(N=C2N1C3CCCC3)NC4=C(C=C(C=C4)C(=O)NC5CCN(CC5)C)OC)C [NPK76-II-72-1] + C[C@@H](Oc1cc(-c2cnn(C3CCNCC3)c2)cnc1N)c1c(Cl)ccc(F)c1Cl [Crizotinib] (partner 1 µM)
# Assay: relative viability (nuclei count vs DMSO), 5 days (fraction); higher = more cells survive
# Details: first compound 0.01 µM
# Procedure, shortened: (§1)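 Relative viability divides the nuclei count in treated wells by that in vehicle wells. Lung cancer cell lines were seeded in 1536-well plates, dosed by pin tool the next day, and fixed and stained after 5 days in one step with final 0.05% Triton X-100, 1% formaldehyde and 1 ug/ml Hoechst. Dosing was a single drug or a fixed anchor-drug dose plus five library-drug doses (not always all listed) in √10 steps, and values are medians of duplicate plates imaged at 4×.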
row,Cell Line,relative viability
1,NCI-H838,0.865
2,NCI-H520,0.713
3,NCI-H2126,1.02
4,EMC-BAC-2,0.765
5,NCI-H2085,0.864
6,HCC-366,0.458
7,NCI-H1666,0.855
8,NCI-H596,1
9,LK-2,0.22
10,NCI-H2087,0.844
11,SK-MES-1,0.967
12,H3255,0.855
13,COR-L23,0.73
14,COR-L 105,0.709
15,LOU-NH91,0.735
16,NCI-H2405,0.863
17,HOP-62,0.85
18,HCC-44,0.734
19,LU99A,0.563
20,BEN,0.89
21,HARA,0.993
22,NCI-H322M,0.968
23,NCI-H2009,0.915
24,A-427,0.798
25,NCI-H661,0.873
26,NCI-H1734,0.703
27,NCI-H460,0.945
28,NCI-H2347,0.742
29,SK-LU-1,0.812
30,201T,1.01

# Same assay, conditions: first compound 0.03162 µM
row,Cell Line,relative viability
1,NCI-H838,0.952
2,NCI-H520,0.914
3,NCI-H2126,1.07
4,EMC-BAC-2,0.817
5,NCI-H2085,0.962
6,HCC-366,0.683
7,NCI-H1666,1.03
8,NCI-H596,1.04
9,LK-2,0.247
10,NCI-H2087,0.786
11,SK-MES-1,0.999
12,H3255,0.887
13,COR-L23,0.715
14,COR-L 105,0.899
15,LOU-NH91,0.735
16,NCI-H2405,0.951

row,Cell Line,relative viability
1,HOP-62,0.907
2,HCC-44,0.772
3,LU99A,0.596
4,BEN,1.07
5,HARA,1.2
6,HCC-78,0.33
7,NCI-H322M,0.944
8,LCLC-97TM1,0.414
9,NCI-H2009,1.12
10,A-427,0.908
11,NCI-H661,0.937
12,NCI-H1734,0.666
13,NCI-H460,1.03
14,NCI-H2347,0.698
15,SK-LU-1,1.07
16,201T,1.01

# Same assay, conditions: first compound 0.1 µM
row,Cell Line,relative viability
1,NCI-H838,0.823
2,NCI-H520,0.716
3,NCI-H2126,0.965
4,EMC-BAC-2,0.658
5,NCI-H2085,1.03
6,HCC-366,0.694
7,NCI-H1666,0.92
8,NCI-H596,0.95
9,LK-2,0.238
10,NCI-H2087,0.82
11,SK-MES-1,1.01
12,H3255,0.819
13,COR-L23,0.738
14,COR-L 105,0.643
15,LOU-NH91,0.693
16,NCI-H2405,0.816

row,Cell Line,relative viability
1,HOP-62,0.75
2,HCC-44,0.827
3,LU99A,0.649
4,BEN,0.908
5,HARA,1.03
6,HCC-78,0.355
7,NCI-H322M,0.868
8,LCLC-97TM1,0.438
9,NCI-H2009,0.974
10,A-427,0.907
11,NCI-H661,0.982
12,NCI-H1734,0.727
13,NCI-H460,1.06
14,NCI-H2347,0.715
15,SK-LU-1,0.93
16,201T,1.02

# Same assay, conditions: first compound 0.3162 µM
row,Cell Line,relative viability
1,NCI-H838,0.734
2,NCI-H520,0.75
3,NCI-H2126,1.01
4,EMC-BAC-2,0.783
5,NCI-H2085,0.778
6,HCC-366,0.429
7,NCI-H1666,0.917
8,NCI-H596,1.02
9,NCI-H2087,0.902
10,SK-MES-1,0.956
11,COR-L23,0.619
12,COR-L 105,0.61
13,LOU-NH91,0.635
14,NCI-H2405,0.798
15,HOP-62,0.896
16,HCC-44,0.795
17,LU99A,0.508
18,BEN,0.77
19,HARA,1.01
20,NCI-H322M,0.873
21,LCLC-97TM1,0.259
22,NCI-H2009,1.01
23,A-427,0.777
24,NCI-H1734,0.642
25,NCI-H460,0.876
26,NCI-H2347,0.718
27,SK-LU-1,0.859
28,201T,1.01

# Same assay, conditions: first compound 1 µM
row,Cell Line,relative viability
1,NCI-H838,0.848
2,NCI-H520,0.751
3,NCI-H2126,1.06
4,EMC-BAC-2,0.823
5,NCI-H2085,1.01
6,HCC-366,0.59
7,NCI-H1666,1.09
8,NCI-H596,1.05
9,LK-2,0.241
10,NCI-H2087,1.01
11,SK-MES-1,1.02
12,H3255,1.16
13,COR-L23,0.647
14,COR-L 105,0.979
15,LOU-NH91,0.764
16,NCI-H2405,0.855

row,Cell Line,relative viability
1,HOP-62,0.982
2,HCC-44,0.846
3,LU99A,0.584
4,BEN,0.893
5,HARA,1.24
6,HCC-78,0.368
7,NCI-H322M,0.983
8,LCLC-97TM1,0.354
9,NCI-H2009,1.15
10,A-427,0.969
11,NCI-H661,0.995
12,NCI-H1734,0.736
13,NCI-H460,0.898
14,NCI-H2347,0.944
15,SK-LU-1,0.981
16,201T,1.01

# Compound: CC1CC(=O)N(C2=CN=C(N=C2N1C3CCCC3)NC4=C(C=C(C=C4)C(=O)NC5CCN(CC5)C)OC)C [NPK76-II-72-1] + C[C@]1(O)C[C@@H](c2nc(-c3ccc4ccc(-c5ccccc5)nc4c3)c3c(N)nccn32)C1 [Linsitinib] (partner 1 µM)
# Assay: as above
# Details: first compound 0.01 µM
# Procedure, shortened: as §1
row,Cell Line,relative viability
1,NCI-H838,0.935
2,NCI-H520,0.753
3,NCI-H2126,0.756

# Reference: the supplement of paper PMC10307832
